Legend:
[1] = test system: ddY male mice; test: Effect on pentobarbital sodium-induced sleeping time (loss of righting reflex); type: in vivo; conditions: test compound 10 mg/kg p.o. one hour before pentobarbital-Na 25 mg/kg s.c.
Experimental: The test was conducted to examine influence of Compound (I) of the present invention on pentobarbital sodium-induced sleeping time, according to the method of Iyakuhin no Kaihatsu, Vol. 9, Iyakuhin no Tansaku I, “antihypnotic”, p. 220-226, Hirokawa Shoten.
For the test, ddY male mice (19-21 g body weight; Japan SLC, Inc.) were used. All test compounds were used by suspending in distilled water (Otsuka Pharmaceutical Factory, Inc.) containing 0.5 volume/weight % methylcellulose (0.5% MC: Wako Pure Chemical Industries, Ltd.). A volume of 0.1 mL was administered per 10 g body weight of mice.
Groups of seven mice were used. To the control groups were orally administrated 0.5% MC, whereas a suspension of the test compound was orally administered to the test compound administered groups. One hour after the administration, pentobarbital sodium (pentobarbital-Na: Tokyo Chemical Industry Co., Ltd., 25 mg/kg) was administered subcutaneously. Mouse placed in a recumbent position, the mouse immediately returns to a proper upright position (this is known as righting reflex). However, the administration of pentobarbital sodium eliminated the righting reflex in the control groups. The time period in which the administration of […] eliminated the righting reflex was regarded as a sleeping time. By a measurement of time disappearing righting reflex immediately after the administration, the sleeping time was determined.

[2] = Table 5-1, groups of seven, controls 52.12 ± 5.20 (r5) and 35.56 ± 5.21 (r11)

| Structure (SMILES) | Sleeping time (min) Mean value ± standard deviation [1, 2] [min] | melting point [°C] | Sleeping time (min) Mean value ± standard deviation ([1]; Table 5-2, groups of seven, controls 40.00 ± 5.32 (r5) and 45.87 ± 4.17 (r12)) [min] |
| --- | --- | --- | --- |
| COc1cccc(C(=O)Nc2nc(-c3ccco3)c(C(=O)C3CCOCC3)s2)c1 [Compound 367, N-[4-(2-Furyl)-5-(tetrahydropyran-4-ylcarbonyl)thiazol-2-yl]-3-methoxybenzamide] | 0.10 ± 0.10 | 198 to 200 |  |
| O=C(Nc1nc(-c2ccco2)c(C(=O)C2CCOCC2)s1)c1ccc(F)cc1 [Compound 373, 4-Fluoro-N-[4-(2-furyl)-5-(tetrahydropyran-4-ylcarbonyl)-thiazol-2-yl]benzamide] |  | 131 to 132 | 0.03 ± 0.02 |
| O=C(Nc1nc(-c2ccco2)c(C(=O)C2CCOCC2)s1)c1ccc(Cl)cc1 [Compound 376, 4-Chloro-N-[4-(2-furyl)-5-(tetrahydropyran-4-ylcarbonyl)-thiazol-2-yl]benzamide] | 0.00 ± 0.00 | 204 to 206 |  |
| O=C(Nc1nc(-c2ccco2)c(C(=O)C2CCOCC2)s1)c1ccc(Cl)nc1 [Compound 407, 2-Chloro-N-[4-(2-furyl)-5-(tetrahydropyran-4-ylcarbonyl)-thiazol-2-yl]pyridine-5-carboxamide] | 0.00 ± 0.00 | 233 to 235 |  |
| O=C(Nc1nc(-c2ccco2)c(C(=O)C2CCOCC2)s1)c1ccco1 [Compound 416, N-[4-(2-Furyl)-5-(tetrahydropyran-4-ylcarbonyl)thiazol-2-yl]furan-2-carboxamide] | 0.06 ± 0.06 | 196 to 198 |  |
| N#Cc1ccc(C(=O)Nc2nc(-c3ccco3)c(C(=O)C3CCOCC3)s2)o1 [Compound 420, 5-Cyano-N-[4-(2-furyl)-5-(tetrahydropyran-4-ylcarbonyl)-thiazol-2-yl]furan-2-carboxamide] | 0.00 ± 0.00 | 222 to 223 |  |
